Key:
Format in all cases: functional
SK-OV-3 = assay: Growth inhibition of human SKOV3 cells assessed as cell growth at 5X10'-6 M after 48 hrs by sulforhodamine B assay; settings: SK-OV-3, 48 h, read-out: Activity
NCI-H226 [1] = assay: Growth inhibition of human NCI-H226 cells assessed as cell growth at 5X10'-9 M after 48 hrs by sulforhodamine B assay; settings: NCI-H226, 48 h, read-out: Activity
HCT-15 = assay: Growth inhibition of human HCT15 cells assessed as cell growth at 5X10'-8 M after 48 hrs by sulforhodamine B assay; settings: HCT-15, 48 h, read-out: Activity
[2] = Growth inhibition of human Hs 578T cells assessed as cell growth at 5X10'-9 M after 48 hrs by sulforhodamine B assay; settings: read-out: Activity
TK-10 [3] = assay: Growth inhibition of human TK10 cells assessed as cell growth at 5X10'-5 M after 48 hrs by sulforhodamine B assay; settings: TK-10, 48 h, read-out: Activity
SF-539 = assay: Growth inhibition of human SF539 cells assessed as cell growth at 5X10'-9 M after 48 hrs by sulforhodamine B assay; settings: SF-539, 48 h, read-out: Activity
DU-145 = assay: Growth inhibition of human DU145 cells assessed as cell growth at 5X10'-7 M after 48 hrs by sulforhodamine B assay; settings: DU-145, 48 h, read-out: Activity
A498 = assay: Growth inhibition of human A498 cells assessed as cell growth at 5X10'-6 M after 48 hrs by sulforhodamine B assay; settings: A498, 48 h, read-out: Activity
HL-60(TB) [4] = assay: Growth inhibition of human HL-60(TB) cells assessed as cell growth at 5X10'-8 M after 48 hrs by sulforhodamine B assay; settings: HL-60, 48 h, read-out: Activity
SF-268 [5] = assay: Growth inhibition of human SF268 cells assessed as cell growth at 5X10'-9 M after 48 hrs by sulforhodamine B assay; settings: SF-268, 48 h, read-out: Activity
CAKI-1 = assay: Growth inhibition of human CAKI-1 cells assessed as cell growth at 5X10'-7 M after 48 hrs by sulforhodamine B assay; settings: CAKI-1, 48 h, read-out: Activity
OVCAR-4 [6] = assay: Growth inhibition of human OVCAR4 cells assessed as cell growth at 5X10'-7 M after 48 hrs by sulforhodamine B assay; settings: OVCAR-4, 48 h, read-out: Activity
IGROV-1 = assay: Growth inhibition of human IGROV1 cells assessed as cell growth at 5X10'-6 M after 48 hrs by sulforhodamine B assay; settings: IGROV-1, 48 h, read-out: Activity
HL-60(TB) [7] = assay: Growth inhibition of human HL-60(TB) cells assessed as cell growth at 5X10'-7 M after 48 hrs by sulforhodamine B assay; settings: HL-60, 48 h, read-out: Activity
SNB-75 [8] = assay: Growth inhibition of human SNB75 cells assessed as cell growth at 5X10'-7 M after 48 hrs by sulforhodamine B assay; settings: SNB-75, 48 h, read-out: Activity
OVCAR-8 = assay: Growth inhibition of human OVCAR8 cells assessed as cell growth at 5X10'-6 M after 48 hrs by sulforhodamine B assay; settings: OVCAR-8, 48 h, read-out: Activity
NCI-H522 = assay: Growth inhibition of human NCI-H522 cells assessed as cell growth at 5X10'-8 M after 48 hrs by sulforhodamine B assay; settings: NCI-H522, 48 h, read-out: Activity
SK-MEL-28 = assay: Growth inhibition of human SK-MEL-28 cells assessed as cell growth at 5X10'-7 M after 48 hrs by sulforhodamine B assay; settings: SK-MEL-28, 48 h, read-out: Activity
SN12C = assay: Growth inhibition of human SN12C cells assessed as cell growth at 5X10'-8 M after 48 hrs by sulforhodamine B assay; settings: read-out: Activity
SNB-75 [9] = assay: Growth inhibition of human SNB75 cells assessed as cell growth at 5X10'-8 M after 48 hrs by sulforhodamine B assay; settings: SNB-75, 48 h, read-out: Activity
SF-268 [10] = assay: Growth inhibition of human SF268 cells assessed as cell growth at 5X10'-6 M after 48 hrs by sulforhodamine B assay; settings: SF-268, 48 h, read-out: Activity
TK-10 [11] = assay: Growth inhibition of human TK10 cells assessed as cell growth at 5X10'-7 M after 48 hrs by sulforhodamine B assay; settings: TK-10, 48 h, read-out: Activity
[12] = Growth inhibition of human HCC2998 cells assessed as cell growth at 5X10'-9 M after 48 hrs by sulforhodamine B assay; settings: HCC 2998, 48 h, read-out: Activity
HT-29 [13] = assay: Growth inhibition of human HT-29 cells assessed as cell growth at 5X10'-5 M after 48 hrs by sulforhodamine B assay; settings: HT-29, 48 h, read-out: Activity
RXF 393 = assay: Growth inhibition of human RXF393 cells assessed as cell growth at 5X10'-6 M after 48 hrs by sulforhodamine B assay; settings: RXF 393, 48 h, read-out: Activity
SR = assay: Growth inhibition of human SR cells assessed as cell growth at 5X10'-9 M after 48 hrs by sulforhodamine B assay; settings: read-out: Activity
OVCAR-4 [14] = assay: Growth inhibition of human OVCAR4 cells assessed as cell growth at 5X10'-9 M after 48 hrs by sulforhodamine B assay; settings: OVCAR-4, 48 h, read-out: Activity
NCI-H226 [15] = assay: Growth inhibition of human NCI-H226 cells assessed as cell growth at 5X10'-6 M after 48 hrs by sulforhodamine B assay; settings: NCI-H226, 48 h, read-out: Activity
MOLT-4 = assay: Growth inhibition of human MOLT4 cells assessed as cell growth at 5X10'-6 M after 48 hrs by sulforhodamine B assay; settings: MOLT-4, 48 h, read-out: Activity
U-251 = assay: Growth inhibition of human U251 cells assessed as cell growth at 5X10'-5 M after 48 hrs by sulforhodamine B assay; settings: U-251, 48 h, read-out: Activity
SK-MEL-2 [16] = assay: Growth inhibition of human SK-MEL-2 cells assessed as cell growth at 5X10'-5 M after 48 hrs by sulforhodamine B assay; settings: SK-MEL-2, 48 h, read-out: Activity
[17] = Growth inhibition of human NCI-ADR-RES cells assessed as cell growth at 5X10'-8 M after 48 hrs by sulforhodamine B assay; settings: read-out: Activity
OVCAR-5 = assay: Growth inhibition of human OVCAR5 cells assessed as cell growth at 5X10'-7 M after 48 hrs by sulforhodamine B assay; settings: OVCAR-5, 48 h, read-out: Activity
COLO 205 = assay: Growth inhibition of human COLO205 cells assessed as cell growth at 5X10'-6 M after 48 hrs by sulforhodamine B assay; settings: COLO 205, 48 h, read-out: Activity
HT-29 [18] = assay: Growth inhibition of human HT-29 cells assessed as cell growth at 5X10'-8 M after 48 hrs by sulforhodamine B assay; settings: HT-29, 48 h, read-out: Activity
UACC-257 = assay: Growth inhibition of human UACC257 cells assessed as cell growth at 5X10'-6 M after 48 hrs by sulforhodamine B assay; settings: UACC-257, 48 h, read-out: Activity
SK-MEL-2 [19] = assay: Growth inhibition of human SK-MEL-2 cells assessed as cell growth at 5X10'-7 M after 48 hrs by sulforhodamine B assay; settings: SK-MEL-2, 48 h, read-out: Activity

Row | SMILES | growth at 5 µM (SK-OV-3) | growth at 0.005 µM (NCI-H226 [1]) | growth at 0.05 µM (HCT-15) | growth at 0.005 µM [2] | growth at 50 µM (TK-10 [3]) | growth at 0.005 µM (SF-539) | growth at 0.5 µM (DU-145) | growth at 5 µM (A498) | growth at 0.05 µM (HL-60(TB) [4]) | growth at 0.005 µM (SF-268 [5]) | growth at 0.5 µM (CAKI-1) | growth at 0.5 µM (OVCAR-4 [6]) | growth at 5 µM (IGROV-1) | growth at 0.5 µM (HL-60(TB) [7]) | growth at 0.5 µM (SNB-75 [8]) | growth at 5 µM (OVCAR-8) | growth at 0.05 µM (NCI-H522) | growth at 0.5 µM (SK-MEL-28) | growth at 0.05 µM (SN12C) | growth at 0.05 µM (SNB-75 [9]) | other results
1 | COc1cc(-c2nn(-c3cccc(NC(=O)c4cccc(C(F)(F)F)c4)c3)cc2-c2ccncc2)ccc1Cl | 24% | 95% | 96% | 91% | 18% | 95% | 92% | -21% | 92% | 94% | 90% | 81% | 22% | 103% | 79% | 23% | 92% | 87% | 99% | 89% | growth at 5 µM (SF-268 [10]): 28%; growth at 0.5 µM (TK-10 [11]): 108%; growth at 0.005 µM [12]: 92%; growth at 50 µM (HT-29 [13]): -4%; growth at 5 µM (RXF 393): -17%; growth at 0.005 µM (SR): 96%; growth at 0.005 µM (OVCAR-4 [14]): 94%; growth at 5 µM (NCI-H226 [15]): 18%; growth at 5 µM (MOLT-4): 23%; growth at 50 µM (U-251): 3%; growth at 50 µM (SK-MEL-2 [16]): 6%; growth at 0.05 µM [17]: 96%; growth at 0.5 µM (OVCAR-5): 85%; growth at 5 µM (COLO 205): 1%; growth at 0.05 µM (HT-29 [18]): 96%; growth at 5 µM (UACC-257): 56%; growth at 0.5 µM (SK-MEL-2 [19]): 91%
2 | O=C(Nc1cccc(-n2cc(-c3ccncc3)c(-c3ccc(Cl)c(O)c3)n2)c1)c1ccc(N2CCOCC2)c(C(F)(F)F)c1 | 72% | 98% | 99% | 92% | 24% | 92% | 96% | 92% | 117% | 90% | 98% | 112% | 68% | 130% | 72% | 41% | 94% | 91% | 98% | 88% | growth at 5 µM (SF-268 [10]): 51%; growth at 0.5 µM (TK-10 [11]): 97%; growth at 0.005 µM [12]: 95%; growth at 50 µM (HT-29 [13]): 16%; growth at 5 µM (RXF 393): -18%; growth at 0.005 µM (SR): 94%; growth at 0.005 µM (OVCAR-4 [14]): 93%; growth at 5 µM (NCI-H226 [15]): 100%; growth at 5 µM (MOLT-4): 32%; growth at 50 µM (U-251): -7%; growth at 50 µM (SK-MEL-2 [16]): -36%; growth at 0.05 µM [17]: 98%; growth at 0.5 µM (OVCAR-5): 98%; growth at 5 µM (COLO 205): 87%; growth at 0.05 µM (HT-29 [18]): 101%; growth at 5 µM (UACC-257): 57%; growth at 0.5 µM (SK-MEL-2 [19]): 102%
3 | O=C(Nc1cccc(-n2cc(-c3ccncc3)c(-c3ccc(Cl)c(O)c3)n2)c1)Nc1cc(C(F)(F)F)cc(C(F)(F)F)c1 | -13% | 98% | 93% | 97% | -95% | 98% | 80% | -4% | 122% | 98% | 74% | 65% | -12% | 93% | 81% | 4% | 102% | 84% | 96% | 86% | growth at 5 µM (SF-268 [10]): -27%; growth at 0.5 µM (TK-10 [11]): 75%; growth at 0.005 µM [12]: 99%; growth at 50 µM (HT-29 [13]): -90%; growth at 5 µM (RXF 393): -36%; growth at 0.005 µM (SR): 102%; growth at 0.005 µM (OVCAR-4 [14]): 95%; growth at 5 µM (NCI-H226 [15]): 6%; growth at 5 µM (MOLT-4): -5%; growth at 50 µM (U-251): -91%; growth at 50 µM (SK-MEL-2 [16]): -77%; growth at 0.05 µM [17]: 103%; growth at 0.5 µM (OVCAR-5): 83%; growth at 5 µM (COLO 205): -94%; growth at 0.05 µM (HT-29 [18]): 107%; growth at 5 µM (UACC-257): -35%; growth at 0.5 µM (SK-MEL-2 [19]): 101%
